# Assay results reported in PubChem BioAssay (NCI).
# “And” between values parts separate entries of the source, which are not always exact repeats. Equal entries are not always repeated.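 Results reflect a 48-hour exposure of cells in 96-well plates to compound at five concentrations. GI50: concentration for 50% inhibition of growth. The concentration for full growth arrest is given as TGI.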
# Legend:
# Assay in all cases: inhibition of tumour cell growth, NCI panel, 48 h
# [1] = system: SW-620 colon
# [2] = system: HS 578T breast
# [3] = system: SF-539 CNS
# [4] = system: DU-145 prostate
# [5] = system: MOLT-4 leukemia
# [6] = system: HCC-2998 colon
# [7] = system: XF 498 CNS
# [8] = system: DMS 273 small cell lung
# [9] = system: KM20L2 colon
# [10] = system: DMS 114 small cell lung
SMILES,TGI [1] [µM],TGI [2] [µM],GI50 [3],TGI [3] [µM],TGI [4] [µM],TGI [5] [µM],TGI [6] [µM],GI50 [1] [µM],GI50 [2] [µM],GI50 [4] [µM],GI50 [5] [µM],GI50 [6] [µM],TGI [7] [µM],TGI [8] [µM],TGI [9] [µM],TGI [10] [µM]
CCOP(=O)(OCC)C(C)(CC)NC(=O)C(C(F)(F)F)C(F)(F)F (stereo not given),> 100,> 100,48.1 µM and > 100 µM,> 100,> 100,> 100,> 100,–,–,–,–,–,–,–,–,–
O=C(Cc1csc2nc(-c3ccc(Br)cc3)cn12)N/N=C/c1ccc(O)cc1,> 100,92.3,18.4 µM,46.5,87.4,–,29.4,31.5,23.7,22.4,4.21,14.6,–,–,–,–
CC(=O)Oc1ccc2c(c1)CC[C@@H]1C2CC[C@]2(C)C(=O)NC(=O)CC12 (stereo not given in full),> 100,> 100,–,> 100,> 100,> 100,> 100,–,–,–,–,–,–,–,–,–
COc1ccccc1NC(=O)C(CC(C(=O)Nc1ccccc1OC)/C(C)=N/Nc1ccc([N+](=O)[O-])cc1[N+](=O)[O-])/C(C)=N/Nc1ccc([N+](=O)[O-])cc1[N+](=O)[O-] (stereo not given),> 100,–,–,> 100,–,> 100,> 100,–,–,–,–,–,> 100,> 100,> 100,–
Nc1[nH]c(=O)ncc1CO,> 100,> 100,> 100 µM,> 100,> 100,> 100,> 100,> 100,> 100,> 100,> 100,> 100,–,–,–,–
C/C(CC(=O)N(C(C)C)C(C)C)=N\NC(=O)c1ccncc1,> 100,–,–,> 100,–,> 100,> 100,–,–,–,–,–,> 100,> 100,> 100,–
CSC1=NCC2(S1)c1ccccc1N(C(=O)OC(C)(C)C)C2N1CCCCC1 (stereo not given),> 100,> 100,> 100 µM,> 100,> 100,> 100,> 100,> 100,81.8,> 100,> 100,31,–,–,–,–
O=S(=O)(c1ccc(O)c(C=Nc2ccc(Cl)cc2)c1)c1ccc(O)c(C=Nc2ccc(Cl)cc2)c1,> 100,–,–,> 100,–,> 100,> 100,–,–,–,–,–,–,> 100,> 100,> 100
CC(=O)N(Cc1ccccc1)c1ccccc1I(=O)=O,91.9,> 100,> 100 µM,> 100,> 100,42.9,> 100,29.4,> 100,29.6,12.7,99.3,–,–,–,–
CCOC(=O)C(NC(=O)c1[nH]cnc1/N=N/N(C)C)C(C)C (stereo not given),> 100,–,–,> 100,–,> 100,> 100,–,–,–,–,–,–,> 100,–,> 100
COc1ccc(S(=O)(=O)N(C)CC(=O)O)cc1,> 100,–,–,> 100,–,> 100,> 100,–,–,–,–,–,> 100,> 100,> 100,–
COC(=O)c1c(C)nc(C)c(NO)c1-c1ccccc1C(F)(F)F,30.2,> 100,–,38.6,> 100,> 100,> 100,–,–,–,–,–,–,–,–,–
CCCCCCCCCCCCCCCCOC(=O)c1cc(O)cc(C(=O)OCCCCCCCCCCCCCCCC)c1,> 100,–,–,–,–,> 100,> 100,–,–,–,–,–,–,> 100,> 100,> 100
FC1OC2OC1C(OCc1ccccc1)C(OCc1ccccc1)C2OCc1ccccc1 (stereo not given),> 100,–,–,> 100,–,67.4,–,–,–,–,–,–,> 100,> 100,> 100,> 100
CN1CCN(c2nc(-c3ccncc3)nc3sc4c(c23)CCCCCC4)CC1,25.6,13.9,8.32 µM,21,26.4,16.2,13.2,11.9,2.3,12.7,3.8,3.91,–,–,–,–
CCOP(=O)(Nc1ccc2oc(=O)c3ccccc3c2c1)OCC,> 100,> 100,–,> 100,> 100,> 100,> 100,–,–,–,–,–,–,–,–,–
CC1CCC2N(C1)CC1C3(O)CC45OC6(O)C(O)CCC4(C)C6CCC5C3(O)CC(O)C1(O)C2(C)O (stereo not given),> 100,> 100,–,> 100,> 100,> 100,> 100,–,–,–,–,–,–,–,–,–
COc1ccc(C(O)CC(O)(C(F)(F)F)C(F)(F)F)cc1 (stereo not given),> 100,61.7,–,55.3,> 100,> 100,> 100,–,–,–,–,–,–,–,–,–
CC/C=C\C/C=C\C[C@H](O)C/C=C1/C(=O)C=C[C@@H]1C/C=C\CCCC(=O)OC,10.3,46.7,2.53 µM,6.09,14.6,4.41,3.48,0.834,6.59,3.6,1.2,2.03,–,–,–,–
Cc1cc(C(O)CN(C)C)cc2c1ccc1cc(C(C)C)ccc12 (stereo not given),3.5,8.92,1.98 µM,3.59,4.08,5.22,3.16,1.79,2.58,2.19,2.16,1.57,–,–,–,–
Cc1nc(N)nc2ccccc12,> 100,> 100,–,> 100,> 100,> 100,> 100,–,–,–,–,> 100,–,–,–,–
COc1ccc(CCN=C2CCC(C(=O)NCCc3ccc(OC)c(OC)c3)N2)cc1OC (stereo not given),> 100,–,–,–,–,> 100,> 100,–,–,–,–,–,> 100,> 100,> 100,> 100
O=C1CN(/N=C/c2ccc(-c3ccc(F)cc3)o2)C(=O)N1,> 100,> 100,–,> 100,> 100,> 100,> 100,–,–,–,–,–,–,–,–,–
CNC(=O)CN(CC(N)=O)C(N)=O,> 100,–,–,> 100,–,> 100,> 100,–,–,–,–,–,> 100,> 100,> 100,–
COc1ccc2nc3ccccc3c(NCCCCN(C)CCCl)c2c1,0.2,–,–,0.284,–,–,0.467,–,–,–,–,–,0.293,0.283,0.478,–
